Measurements reported in patent US20250195502A1, “APPLICATION OF TETRACYCLIC COMPOUND IN TREATMENT OF TUMORS” (SHANGHAI SHIJIANG BIOTECHNOLOGY CO., LTD, priority 2022, published 2025).
Read-outs that look alike come from different tables or passages of the source.

How the values were obtained:
Type in all cases: cell-based
[1] = system: D341 Med (cerebellar medulloblastoma cell); assay: Cell viability assay (Promega CellTiter-Glo), inhibitory effect on D341 Med; conditions: Homo sapiens, 72 h, 3 days of culture, read-out: inhibitory effect on brain cell line D341 Med (IC50)
Experimental: (§1) The inhibitory effect of the compounds prepared in the Examples of the present invention on various brain tumor cell lines was detected using cell viability assay reagent.
(§2) Cell viability was detected using the Promega CellTiter-Glo kit, cell viability was determined by directly measuring intracellular ATP content. In the experiment, the IC50 value of the compounds prepared in the Examples of the present invention on various brain tumor cell lines was detected.
(§3) Each tumor cell was cultured in relevant medium. After cell passage, the gradient diluted compounds prepared in the Examples of the present invention was added. After 3 days of culture, the relevant IC50 (50% inhibiting concentration) was measured. The name, source and culture conditions of each tumor cell line were as follows:
Cell line D341 Med (ATCC, No. HTB-187) was cultured in 20% fetal bovine serum-containing EMEM medium (+P/S).

[2] = system: NB-1 (brain neuroblastoma cell); assay: Cell viability assay (Promega CellTiter-Glo), inhibitory effect on NB-1; conditions: Homo sapiens, 72 h, 3 days of culture, read-out: inhibitory effect on brain cell line NB-1 (IC50)
Experimental: as §1, §2, §3
Cell line NB-1 (ATCC, No. HTB-131) was cultured in 10% fetal bovine serum-containing Leibovitz's L-15 medium (+P/S).

[3] = system: CFPAC-1 (human pancreatic cancer cell); assay: Cell viability assay (Promega CellTiter-Glo), inhibitory effect on CFPAC-1; conditions: 72 h, 3 days of culture
Experimental: (§4) The inhibitory effect of the compounds prepared in the Examples of the present invention on various tumor cell lines was detected using cell viability assay reagent.
(§5) Cell viability was detected using the Promega CellTiter-Glo kit, cell viability was determined by directly measuring intracellular ATP content. In the experiment, the ICso value of the compounds prepared in the Examples of the present invention on various tumor cell lines was detected.
as §3
Cell line CFPAC-1 (ATCC, No. CRL-1918) was cultured in 10% fetal bovine serum-containing IMDM medium (+P/S).

[4] = system: ov-NNMT NCI-H82 cell (NNMT protein-overexpressing NCI-H82); assay: Cell viability assay (Promega CellTiter-Glo), inhibitory effect on ov-NNMT NCI-H82 cell; conditions: Homo sapiens
Experimental: (§6) The role of expression level of NNMT gene and DNMT1 in the sensitivity of NCI-H82 cell to the compounds prepared in the Examples of the present invention was determined
(§7) The expression of NNMT protein in NCI-H82 cell was overexpressed by inserting the NNMT gene into NCI-H82 cell using a viral vector, and the NNMT protein-overexpressing NCI-H82 cell (ov-NNMT NCI-H82 cell) was obtained. The expression of DNMT1 in NCI-H82 cell was knocked down transfecting (the by shRNA nucleotide sequence of shRNA was […] TTTTTG (SEQ ID No: 2)) using a viral vector, and the NCI-H82 cell with low expression of DNMT1 protein (sh-DNMT1 NCI-H82 cell) was obtained. The control NCI-H82 cell (Con-NCI-H82 cell) was obtained by transfecting NCI-H82 cell with empty virus vector without carrying NNMT gene and shRNA. The expressing content of NNMT protein and DNMT1 protein in the Con-NCI-H82 cell, the expressing content of NNMT protein in the ov-NNMT NCI-H82 cell, and the expressing content of DNMT1 protein in the sh-DNMT1 NCI-H82 cell were detected using Western Blot assay (as shown in FIG. 15 and FIG. 16), it could be seen from FIG. 15 and FIG. 16 that the NNMT protein was overexpressed in the ov-NNMT NCI-H82 cell and the expression of DNMT1 protein was knocked down (i.e, low expression) in the sh-DNMT1 NCI-H82 cell compared with the expression level of NNMT protein and DNMT protein in the Con-NCI-H82 cell.

[5] = system: SW48 (human colon adenocarcinoma cell); assay: Cell viability assay (Promega CellTiter-Glo), inhibitory effect on SW48; conditions: 72 h, 3 days of culture
Experimental: as §4, §5, §3
Cell line SW48 (ATCC, No. CCL-231) was cultured in 10% fetal bovine serum-containing Leibovitz's L-15 medium (+P/S).

[6] = system: GB-1 (human brain glioblastoma cell); assay: Cell viability assay (Promega CellTiter-Glo), inhibitory effect on GB-1; conditions: 72 h, 3 days of culture
Experimental: as §4, §5, §3
Cell line GB-1 (JCRB, No. IFO50489) was cultured in 10% fetal bovine serum-containing DMEM medium (+P/S).
as §1, §2

[7] = system: Con-NCI-H82 cell (NCI-H82 transfected with empty virus vector); assay: Cell viability assay (Promega CellTiter-Glo), inhibitory effect on Con-NCI-H82 cell; conditions: Homo sapiens; NCI-H82 transfected with empty virus vector (control); CellTiter-Glo; read-out: inhibitory effect on Con-NCI-H82 (IC50)
Experimental: as §6, §7

[8] = system: SF126 (human glioblastoma multiforme cell); assay: Cell viability assay (Promega CellTiter-Glo), inhibitory effect on SF126
Experimental: as §4, §5, §3
Cell line SF126 (JCRB, No. IFO50286) was cultured in 10% fetal bovine serum-containing EMEM medium (+P/S).
as §1, §2

[9] = system: NCI-H82 (human small cell lung cancer cell); assay: Cell viability assay (Promega CellTiter-Glo), inhibitory effect on NCI-H82; conditions: 72 h, 3 days of culture
Experimental: as §4, §5, §3
Cell line NCI-H82 (ATCC, No. HTB-175) was cultured in 10% fetal bovine serum-containing RPMI1640 medium (+P/S).

[10] = system: Kelly (brain neuroblastoma cell); assay: Cell viability assay (Promega CellTiter-Glo), inhibitory effect on Kelly; conditions: Homo sapiens, 72 h, 3 days of culture, read-out: inhibitory effect on brain cell line Kelly (IC50)
Experimental: as §1, §2, §3
Cell line Kelly (ECACC, No. 92110411) was cultured in 10% fetal bovine serum and 2 mM glutamine-containing RPMI1640 medium.

[11] = system: 786-O (clear cell renal cell adenocarcinoma cell); assay: Cell viability assay (Promega CellTiter-Glo), inhibitory effect on 786-O; conditions: Homo sapiens, 786-0, 72 h, 3 days of culture
Experimental: as §4, §5, §3
Cell line 786-0 (ATCC, No. CRL-1932) was cultured in 10% fetal bovine serum-containing RPMI1640 medium (+P/S).

[12] = system: sh-DNMT1 NCI-H82 cell (DNMT1 knocked down NCI-H82); assay: Cell viability assay (Promega CellTiter-Glo), inhibitory effect on sh-DNMT1 NCI-H82 cell; conditions: Homo sapiens, NCI-H82 with DNMT1 knocked down by shRNA
Experimental: as §6, §7

[13] = system: G-401 (human renal carcinoma Wilms cell); assay: Cell viability assay (Promega CellTiter-Glo), inhibitory effect on G-401; conditions: 72 h, 3 days of culture
Experimental: as §4, §5, §3
Cell line G-401 (ATCC, No. CRL-1441) was cultured in 10% fetal bovine serum-containing McCoy's 5a medium (+P/S).

[14] = system: MDA-MB-453 (breast cancer cell); assay: Cell viability assay (Promega CellTiter-Glo), inhibitory effect on MDA-MB-453; conditions: Homo sapiens, 72 h, 3 days of culture
Experimental: as §4, §5, §3
Cell line MDA-MB-453 (ATCC, No. HTB-131) was cultured in 10% fetal bovine serum-containing Leibovitz's L-15 medium (+P/S).

[15] = Table 3, read-out: inhibitory effect on GB-1 (IC50)
[16] = Table 4, read-out: inhibitory effect on brain cell line GB-1 (IC50)
[17] = 72 h, SF-126, 3 days of culture, Table 3, read-out: inhibitory effect on SF-126 (IC50)
[18] = SF-126, 72 h, SF126, 3 days of culture, Table 4, read-out: inhibitory effect on brain cell line SF126 (IC50)

SMILES	IC50 [1]	IC50 [2]	IC50 [3]	IC50 [4]	IC50 [5]	IC50 [6, 15]	IC50 [6, 16]	IC50 [7]	IC50 [8, 17]	IC50 [8, 18]	IC50 [9]	IC50 [10]	IC50 [11]	IC50 [12]	IC50 [13]	IC50 [14]
COc1ccc2cc3[n+](cc2c1OC(=O)CC12CC4CC(CC(C4)C1)C2)CCc1cc2c(cc1-3)OCO2 [compound AB31771]	1.66 µM	1.04 µM	17.1 µM	3.94 µM	1.37 µM	11.2 µM	11.2 µM	1.87 µM	15.7 µM	15.7 µM	1.87 µM	2.21 µM	20.8 µM	5.81 µM	2.04 µM	0.35 µM
COc1ccc2c(CCc3ccccc3)c3[n+](cc2c1OC)CCc1cc2c(cc1-3)OCO2 [compound AB31780]	1.88 µM	0.23 µM	17.9 µM	1.52 µM	0.79 µM	12.6 µM	12.6 µM	0.66 µM	9.75 µM	9.75 µM	0.66 µM	1.16 µM	8.05 µM	1.98 µM	0.88 µM	0.9 µM
COc1ccc2c(CCCc3ccccc3)c3[n+](cc2c1OC)CCc1cc2c(cc1-3)OCO2 [compound AB31781]	0.82 µM	0.14 µM	11.3 µM	1.16 µM	0.4 µM	8.6 µM	8.6 µM	0.33 µM	7.48 µM	7.48 µM	0.33 µM	0.73 µM	5.34 µM	1.42 µM	0.37 µM	0.76 µM
COc1ccc2cc3[n+](cc2c1OCCCCCCBr)CCc1cc2c(cc1-3)OCO2 [compound AB31787]	0.33 µM	0.08 µM	6.63 µM	0.88 µM	0.48 µM	4.23 µM	4.23 µM	0.34 µM	4.29 µM	4.29 µM	0.34 µM	0.69 µM	4.09 µM	1.31 µM	0.49 µM	0.28 µM
COc1ccc2c(Cc3ccc(OC(F)(F)F)cc3)c3[n+](cc2c1OC)CCc1cc2c(cc1-3)OCO2 [compound AB31788]	1.88 µM	0.31 µM	16.9 µM	2.42 µM	0.69 µM	16.5 µM	16.5 µM	0.71 µM	10.9 µM	10.9 µM	0.71 µM	1.3 µM	10.8 µM	2.95 µM	0.63 µM	1.03 µM
